Data from ChEMBL document CHEMBL4715874, “In Vivo Screening of Xanthones from Garcinia oligantha Identified Oliganthin H as a Novel Natural Inhibitor of Convulsions” (J Nat Prod, 2020).
Active and inactive are the calls of the source. The calls are words filed in the database; no cut-off is given here.

Columns and labels:
[1] = Effect of BDNF mRNA expression in AB zebra fish larvae at 25 uM after 6 hrs by qRT-PCR analysis (reference value: 1.01 +/- 0.21%); assay type: ADME, Danio rerio; conditions: zebrafish
[2] = Effect of gat1 mRNA expression in AB zebra fish larvae at 25 uM after 6 hrs by qRT-PCR analysis (reference value: 1.03 +/- 0.38%); assay type: ADME, Danio rerio; conditions: zebrafish
[3] = species: Danio rerio; test: Anticonvulsant activity in AB zebra fish larvae assessed as reduction in PTZ-induced convulsant behavior by measuring swimming distance at 25 uM pretreated for 6 hrs followed by PTZ-stimulation and measured every 5 mins for 1 hr relative to control; assay type: functional; parameters: scale not given: the % may be the effect or the level left; conditions: time 7 hrs
[4] = species: Danio rerio; test: Anticonvulsant activity in AB zebra fish larvae assessed as PTZ-induced seizure duration time at 12.5 uM pretreated for 6 hrs followed by PTZ-stimulation and measured every 5 mins for 30 mins (reference value: 0.32 +/- 0.31 s); assay type: functional; conditions: time 6.5 hrs
[5] = Effect of ABAT mRNA expression in AB zebra fish larvae at 25 uM after 6 hrs by qRT-PCR analysis (reference value: 1 +/- 0.11%); assay type: ADME, Danio rerio; conditions: zebrafish
[6] = species: Danio rerio; test: Anticonvulsant activity in AB zebra fish larvae assessed as reduction in PTZ-induced convulsant behavior by measuring swimming distance at 6.2 uM pretreated for 6 hrs followed by PTZ-stimulation and measured every 5 mins for 1 hr; assay type: functional, organism-based; conditions: time 7.0 hrs
[7] = species: Danio rerio; test: Anticonvulsant activity in AB zebra fish larvae assessed as PTZ-induced number of burst at 6.2 uM pretreated for 6 hrs followed by PTZ-stimulation and measured every 5 mins for 30 mins (reference value: 9.25 +/- 6.36); assay type: functional; conditions: time 6.5 hrs
[8] = species: Danio rerio; test: Anticonvulsant activity in AB zebra fish larvae assessed as PTZ-induced seizure activity at 6.2 uM pretreated for 6 hrs followed by PTZ-stimulation and measured every 5 mins for 30 mins (reference value: 14.13 +/- 0.004 mm); assay type: functional; conditions: time 6.5 hrs
[9] = species: Danio rerio; test: Anticonvulsant activity in AB zebra fish larvae assessed as PTZ-induced seizure activity at 12.5 uM pretreated for 6 hrs followed by PTZ-stimulation and measured every 5 mins for 30 mins (reference value: 14.13 +/- 0.004 mm); assay type: functional; conditions: time 6.5 hrs
[10] = species: Danio rerio; test: Anticonvulsant activity in AB zebra fish larvae assessed as PTZ-induced velocity at 12.5 uM pretreated for 6 hrs followed by PTZ-stimulation and measured every 5 mins for 30 mins (reference value: 0.63 +/- 0.23 mm/s); assay type: functional; conditions: time 6.5 hrs
[11] = Neurotoxicity in AB zebra fish larvae assessed as increase in total swimming distance at > 12.5 uM after 6 hrs; assay type: toxicity, Danio rerio; conditions: zebrafish
[12] = Effect of GLULA mRNA expression in AB zebra fish larvae at 25 uM after 6 hrs by qRT-PCR analysis (reference value: 1.02 +/- 0.29%); assay type: ADME, Danio rerio; conditions: zebrafish
[13] = species: Danio rerio; test: Anticonvulsant activity in AB zebra fish larvae assessed as PTZ-induced gat1 mRNA expression at 25 uM pretreated for 6 hrs followed by PTZ-stimulation and measured after 30 mins by qRT-PCR analysis (reference value: 1.63 +/- 0.28%); assay type: functional; conditions: time 6.5 hrs
[14] = species: Danio rerio; test: Anticonvulsant activity in AB zebra fish larvae assessed as PTZ-induced PRKACB mRNA expression at 25 uM pretreated for 6 hrs followed by PTZ-stimulation and measured after 30 mins by qRT-PCR analysis (reference value: 1.49 +/- 0.69%); assay type: functional; conditions: time 6.5 hrs
[15] = species: Danio rerio; test: Anticonvulsant activity in AB zebra fish larvae assessed as PTZ-induced velocity at 25 uM pretreated for 6 hrs followed by PTZ-stimulation and measured every 5 mins for 30 mins (reference value: 0.63 +/- 0.23 mm/s); assay type: functional; conditions: time 6.5 hrs
[16] = species: Danio rerio; test: Anticonvulsant activity in AB zebra fish larvae assessed as PTZ-induced c-fos mRNA expression at 25 uM pretreated for 6 hrs followed by PTZ-stimulation and measured after 30 mins by qRT-PCR analysis (reference value: 8.91 +/- 0.54%); assay type: functional; conditions: time 6.5 hrs
[17] = species: Danio rerio; test: Anticonvulsant activity in AB zebra fish larvae assessed as PTZ-induced calb2 mRNA expression at 25 uM pretreated for 6 hrs followed by PTZ-stimulation and measured after 30 mins by qRT-PCR analysis (reference value: 0.88 +/- 0.39%); assay type: functional; conditions: time 6.5 hrs
[18] = Effect of c-fos mRNA expression in AB zebra fish larvae at 25 uM after 6 hrs by qRT-PCR analysis (reference value: 1.06 +/- 0.52%); assay type: ADME, Danio rerio; conditions: zebrafish
[19] = Effect of calb2 mRNA expression in AB zebra fish larvae at 25 uM after 6 hrs by qRT-PCR analysis (reference value: 1.02 +/- 0.33%); assay type: ADME, Danio rerio; conditions: zebrafish
[20] = species: Danio rerio; test: Anticonvulsant activity in AB zebra fish larvae assessed as PTZ-induced number of burst at 25 uM pretreated for 6 hrs followed by PTZ-stimulation and measured every 5 mins for 30 mins (reference value: 9.25 +/- 6.36); assay type: functional; conditions: time 6.5 hrs
[21] = species: Danio rerio; test: Anticonvulsant activity in AB zebra fish larvae assessed as PTZ-induced velocity at 6.2 uM pretreated for 6 hrs followed by PTZ-stimulation and measured every 5 mins for 30 mins (reference value: 0.63 +/- 0.23 mm/s); assay type: functional; conditions: time 6.5 hrs
[22] = species: Danio rerio; test: Anticonvulsant activity in AB zebra fish larvae assessed as PTZ-induced gabra1 mRNA expression at 25 uM pretreated for 6 hrs followed by PTZ-stimulation and measured after 30 mins by qRT-PCR analysis (reference value: 19.68 +/- 3.28%); assay type: functional; conditions: time 6.5 hrs
[23] = Toxicity in AB zebra fish larvae assessed as maximum tolerated concentration after 6 hrs; parameters: species or system Danio rerio; conditions: zebrafish, read-out: MTC
[24] = species: Danio rerio; test: Anticonvulsant activity in AB zebra fish larvae assessed as PTZ-induced seizure duration time at 25 uM pretreated for 6 hrs followed by PTZ-stimulation and measured every 5 mins for 30 mins (reference value: 0.32 +/- 0.31 s); assay type: functional; conditions: time 6.5 hrs
[25] = Effect of npas4a mRNA expression in AB zebra fish larvae at 25 uM after 6 hrs by qRT-PCR analysis (reference value: 1.04 +/- 0.41%); assay type: ADME, Danio rerio; conditions: zebrafish
[26] = Ratio of MTC for toxicity in AB zebra fish larvae to lowest observed effect concentration for Anticonvulsant activity in AB zebra fish larvae assessed as reduction in PTZ-induced convulsant behavior; parameters: species or system Danio rerio
[27] = Toxicity in AB zebra fish larvae assessed as mortality at 100 uM after 6 hrs; parameters: species or system Danio rerio; conditions: zebrafish
[28] = species: Danio rerio; test: Anticonvulsant activity in AB zebra fish larvae assessed as PTZ-induced npas4a mRNA expression at 25 uM pretreated for 6 hrs followed by PTZ-stimulation and measured after 30 mins by qRT-PCR analysis (reference value: 25.34 +/- 3.28%); assay type: functional; conditions: time 6.5 hrs
[29] = Neurotoxicity in AB zebra fish larvae assessed as decrease in total swimming distance at <= MTC after 6 hrs; assay type: toxicity, Danio rerio; conditions: zebrafish
[30] = Effect of glud1a mRNA expression in AB zebra fish larvae at 25 uM after 6 hrs by qRT-PCR analysis (reference value: 1 +/- 0.16%); assay type: ADME, Danio rerio; conditions: zebrafish
[31] = species: Danio rerio; test: Anticonvulsant activity in AB zebra fish larvae assessed as PTZ-induced glud1a mRNA expression at 25 uM pretreated for 6 hrs followed by PTZ-stimulation and measured after 30 mins by qRT-PCR analysis (reference value: 1.67 +/- 0.4%); assay type: functional; conditions: time 6.5 hrs
[32] = species: Danio rerio; test: Anticonvulsant activity in AB zebra fish larvae assessed as reduction in PTZ-induced convulsant behavior by measuring swimming distance at 12.5 uM pretreated for 6 hrs followed by PTZ-stimulation and measured every 5 mins for 1 hr relative to control; assay type: functional; parameters: scale not given: the % may be the effect or the level left; conditions: time 7 hrs
[33] = species: Danio rerio; test: Anticonvulsant activity in AB zebra fish larvae assessed as PTZ-induced PYYA mRNA expression at 25 uM pretreated for 6 hrs followed by PTZ-stimulation and measured after 30 mins by qRT-PCR analysis (reference value: 18.53 +/- 4.32%); assay type: functional; conditions: time 6.5 hrs
[34] = species: Danio rerio; test: Anticonvulsant activity in AB zebra fish larvae assessed as PTZ-induced GLSA mRNA expression at 25 uM pretreated for 6 hrs followed by PTZ-stimulation and measured after 30 mins by qRT-PCR analysis (reference value: 3.4 +/- 0.5%); assay type: functional; conditions: time 6.5 hrs
[35] = species: Danio rerio; test: Anticonvulsant activity in AB zebra fish larvae assessed as PTZ-induced number of burst at 12.5 uM pretreated for 6 hrs followed by PTZ-stimulation and measured every 5 mins for 30 mins (reference value: 9.25 +/- 6.36); assay type: functional; conditions: time 6.5 hrs
[36] = Effect of gad1 mRNA expression in AB zebra fish larvae at 25 uM after 6 hrs by qRT-PCR analysis (reference value: 1 +/- 0.11%); assay type: ADME, Danio rerio; conditions: zebrafish
[37] = species: Danio rerio; test: Anticonvulsant activity in AB zebra fish larvae assessed as reduction in PTZ-induced convulsant behavior by measuring lowest observed effect concentration pretreated for 6 hrs followed by PTZ-stimulation and measured every 5 mins for 1 hr; assay type: functional; conditions: time 7 hrs
[38] = Effect of gabra1 mRNA expression in AB zebra fish larvae at 25 uM after 6 hrs by qRT-PCR analysis (reference value: 1 +/- 0.11%); assay type: ADME, Danio rerio; conditions: zebrafish
[39] = Neurotoxicity in AB zebra fish larvae at 100 uM after 6 hrs; assay type: toxicity, Danio rerio; conditions: zebrafish
[40] = species: Danio rerio; test: Anticonvulsant activity in AB zebra fish larvae assessed as PTZ-induced gad1 mRNA expression at 25 uM pretreated for 6 hrs followed by PTZ-stimulation and measured after 30 mins by qRT-PCR analysis (reference value: 5.45 +/- 1.77%); assay type: functional; conditions: time 6.5 hrs
[41] = Effect of GLSA mRNA expression in AB zebra fish larvae at 25 uM after 6 hrs by qRT-PCR analysis (reference value: 1 +/- 0.18%); assay type: ADME, Danio rerio; conditions: zebrafish
[42] = species: Danio rerio; test: Anticonvulsant activity in AB zebra fish larvae assessed as PTZ-induced pvalb5 mRNA expression at 25 uM pretreated for 6 hrs followed by PTZ-stimulation and measured after 30 mins by qRT-PCR analysis (reference value: 0.59 +/- 0.52%); assay type: functional; conditions: time 6.5 hrs
[43] = Effect of PRKACAB mRNA expression in AB zebra fish larvae at 25 uM after 6 hrs by qRT-PCR analysis (reference value: 1 +/- 0.03%); assay type: ADME, Danio rerio; conditions: zebrafish
[44] = Effect of pvalb5 mRNA expression in AB zebra fish larvae at 25 uM after 6 hrs by qRT-PCR analysis (reference value: 1 +/- 0.07%); assay type: ADME, Danio rerio; conditions: zebrafish
[45] = species: Danio rerio; test: Anticonvulsant activity in AB zebra fish larvae assessed as PTZ-induced ABAT mRNA expression at 25 uM pretreated for 6 hrs followed by PTZ-stimulation and measured after 30 mins by qRT-PCR analysis (reference value: 2.16 +/- 1.2%); assay type: functional; conditions: time 6.5 hrs
[46] = species: Danio rerio; test: Anticonvulsant activity in AB zebra fish larvae assessed as PTZ-induced seizure duration time at 6.2 uM pretreated for 6 hrs followed by PTZ-stimulation and measured every 5 mins for 30 mins (reference value: 0.32 +/- 0.31 s); assay type: functional; conditions: time 6.5 hrs
[47] = species: Danio rerio; test: Anticonvulsant activity in AB zebra fish larvae assessed as PTZ-induced BDNF mRNA expression at 25 uM pretreated for 6 hrs followed by PTZ-stimulation and measured after 30 mins by qRT-PCR analysis (reference value: 11.41 +/- 1.09%); assay type: functional; conditions: time 6.5 hrs
[48] = Effect of PYYA mRNA expression in AB zebra fish larvae at 25 uM after 6 hrs by qRT-PCR analysis (reference value: 1 +/- 0.13%); assay type: ADME, Danio rerio; conditions: zebrafish
[49] = species: Danio rerio; test: Anticonvulsant activity in AB zebra fish larvae assessed as PTZ-induced seizure activity at 25 uM pretreated for 6 hrs followed by PTZ-stimulation and measured every 5 mins for 30 mins (reference value: 14.13 +/- 0.004 mm); assay type: functional; conditions: time 6.5 hrs
[50] = species: Danio rerio; test: Anticonvulsant activity in AB zebra fish larvae assessed as PTZ-induced GLULA mRNA expression at 25 uM pretreated for 6 hrs followed by PTZ-stimulation and measured after 30 mins by qRT-PCR analysis (reference value: 5.44 +/- 0.55%); assay type: functional; conditions: time 6.5 hrs

Question: Which results are given for `CC(C)=CCC/C(C)=C/C[C@@]1(CC=C(C)C)C(=O)C(O)=C(O)c2oc3c4c(cc(O)c3c(=O)c21)OC(C)(C)C=C4`?
Answer: Activity [1]: 1.14%; Activity [2]: 0.87%; Activity [3]: 50%; Time [4]: 8.18 s; Activity [5]: 0.7%; Activity [6]: inactive; Activity [7]: 287.3; Activity [8]: 1210 mm; Activity [9]: 600.8 mm; Activity [10]: 0.86 millimeter/sec; Activity [11]: Toxic; Activity [12]: 0.76%; Activity [13]: 1.13%; Activity [14]: 1.21%; Activity [15]: 0.8 millimeter/sec; Activity [16]: 3.31%; Activity [17]: 0.97%; Activity [18]: 1.67%; Activity [19]: 0.86%; Activity [20]: 142.3; Activity [21]: 1.2 millimeter/sec; Activity [22]: 1.34%; MNTC at 6 h [23]: 50 µM; Time [24]: 7.32 s; Activity [25]: 1.95%; Ratio [26]: 4; Activity [27]: Toxic; Activity [28]: 0.89%; Activity [29]: Non-Toxic; Activity [30]: 1%; Activity [31]: 1.24%; Activity [32]: 25%; Activity [33]: 1.09%; Activity [34]: 0.92%; Activity [35]: 153.5; Activity [36]: 1.31%; Activity [37]: 12.5 µM; Activity [38]: 1.77%; Activity [39]: Toxic; Activity [40]: 1.08%; Activity [41]: 0.78%; Activity [42]: 0.85%; Activity [43]: 0.9%; Activity [44]: 0.86%; Activity [45]: 0.53%; Time [46]: 18.46 s; Activity [47]: 1.32%; Activity [48]: 2.27%; Activity [49]: 557.9 mm; Activity [50]: 1.61%
